# Source: patent US20240158370A1, “CK1 alpha AND DUAL CK1 alpha / GSPT1 DEGRADING COMPOUNDS” (Innovo Therapeutics, Inc., priority 2022, published 2024)
# Assays:
# CK1α = molecular target: T1, CK1α (Homo sapiens, UniProt P48729+Q96SW2); test: HiBiT degradation assay, CK1α, Procedure A; assay type: cell-based; settings: six hours
# T1 construct: CSNK1A1-HiBit KI HEK293(LgBit) Cells; host or cells: HEK293(LgBit) knock-in cells
# How it was run: (§1)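 Cells in DMEM+10% FBS at 1×10^6 cells/ml were added to pre-spotted compound (10-point dose response, 10 μM to 0.005 μM, 0.1% DMSO) and incubated 6 h at 37° C. Nano-Glo HiBiT lytic reagent was added and luminescence read. DC50 and Ymin came from 4-parameter curve fits.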
# GSPT1 = GSPT1 (Homo sapiens, UniProt P15170+Q96SW2); test: HiBiT degradation assay, GSPT1, Procedure A; assay type: cell-based; set-up: HiBit-GSPT1 KI HEK293(LgBit) Cells; host or cells: HEK293(LgBit) knock-in cells; settings: six hours
# How it was run: as §1
# T1 sequence (P48729 whole entry): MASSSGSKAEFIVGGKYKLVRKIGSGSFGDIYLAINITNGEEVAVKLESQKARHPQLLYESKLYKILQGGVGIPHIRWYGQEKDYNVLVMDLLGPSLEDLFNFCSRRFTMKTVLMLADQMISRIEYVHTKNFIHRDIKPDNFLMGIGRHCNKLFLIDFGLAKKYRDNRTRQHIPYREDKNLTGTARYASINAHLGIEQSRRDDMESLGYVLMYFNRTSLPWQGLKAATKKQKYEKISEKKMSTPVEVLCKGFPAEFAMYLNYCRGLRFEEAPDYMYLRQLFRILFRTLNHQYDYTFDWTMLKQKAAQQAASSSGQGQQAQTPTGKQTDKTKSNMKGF
# T1 sequence (Q96SW2 whole entry): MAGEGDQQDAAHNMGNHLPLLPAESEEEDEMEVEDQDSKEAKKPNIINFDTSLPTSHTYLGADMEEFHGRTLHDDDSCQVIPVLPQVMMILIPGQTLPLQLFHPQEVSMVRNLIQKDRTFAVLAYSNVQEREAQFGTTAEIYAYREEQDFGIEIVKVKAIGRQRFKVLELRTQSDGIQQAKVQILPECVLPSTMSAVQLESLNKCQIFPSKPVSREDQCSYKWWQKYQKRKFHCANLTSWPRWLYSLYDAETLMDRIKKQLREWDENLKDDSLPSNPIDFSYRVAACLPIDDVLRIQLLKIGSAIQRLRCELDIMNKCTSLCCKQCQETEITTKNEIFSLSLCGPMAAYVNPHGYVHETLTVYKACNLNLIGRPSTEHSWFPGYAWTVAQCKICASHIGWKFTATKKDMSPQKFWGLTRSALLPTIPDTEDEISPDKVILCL
# T1 sequence (Q16531 whole entry partner): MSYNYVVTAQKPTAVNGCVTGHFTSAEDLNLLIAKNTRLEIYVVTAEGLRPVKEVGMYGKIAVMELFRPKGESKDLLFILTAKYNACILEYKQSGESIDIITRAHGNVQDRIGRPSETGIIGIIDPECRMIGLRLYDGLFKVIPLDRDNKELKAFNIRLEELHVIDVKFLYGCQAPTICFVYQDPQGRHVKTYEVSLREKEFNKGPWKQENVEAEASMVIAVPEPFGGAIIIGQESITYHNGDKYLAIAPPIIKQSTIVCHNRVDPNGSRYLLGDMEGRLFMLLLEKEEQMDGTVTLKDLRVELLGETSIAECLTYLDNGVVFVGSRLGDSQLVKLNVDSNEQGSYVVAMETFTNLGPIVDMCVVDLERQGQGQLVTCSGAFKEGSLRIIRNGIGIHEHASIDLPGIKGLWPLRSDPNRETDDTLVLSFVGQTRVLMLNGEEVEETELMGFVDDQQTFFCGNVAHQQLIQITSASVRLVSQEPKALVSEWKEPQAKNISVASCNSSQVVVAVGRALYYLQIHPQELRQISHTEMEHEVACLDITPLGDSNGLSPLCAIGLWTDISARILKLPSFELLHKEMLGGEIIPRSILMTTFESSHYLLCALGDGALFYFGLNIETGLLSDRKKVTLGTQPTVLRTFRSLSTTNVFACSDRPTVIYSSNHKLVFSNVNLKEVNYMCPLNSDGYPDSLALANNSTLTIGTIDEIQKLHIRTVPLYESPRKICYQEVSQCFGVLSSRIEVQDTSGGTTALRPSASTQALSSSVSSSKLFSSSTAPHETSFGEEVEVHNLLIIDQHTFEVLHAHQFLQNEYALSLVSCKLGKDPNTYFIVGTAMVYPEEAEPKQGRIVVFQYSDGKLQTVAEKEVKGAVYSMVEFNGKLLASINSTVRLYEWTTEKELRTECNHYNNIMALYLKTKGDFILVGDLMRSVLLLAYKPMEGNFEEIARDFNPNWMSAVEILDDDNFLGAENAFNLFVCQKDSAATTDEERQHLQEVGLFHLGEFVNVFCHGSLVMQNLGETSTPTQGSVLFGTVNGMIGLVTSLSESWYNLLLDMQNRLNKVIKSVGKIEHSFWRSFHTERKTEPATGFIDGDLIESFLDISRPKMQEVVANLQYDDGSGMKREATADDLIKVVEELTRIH
# Sequence of GSPT1 (P15170 whole entry): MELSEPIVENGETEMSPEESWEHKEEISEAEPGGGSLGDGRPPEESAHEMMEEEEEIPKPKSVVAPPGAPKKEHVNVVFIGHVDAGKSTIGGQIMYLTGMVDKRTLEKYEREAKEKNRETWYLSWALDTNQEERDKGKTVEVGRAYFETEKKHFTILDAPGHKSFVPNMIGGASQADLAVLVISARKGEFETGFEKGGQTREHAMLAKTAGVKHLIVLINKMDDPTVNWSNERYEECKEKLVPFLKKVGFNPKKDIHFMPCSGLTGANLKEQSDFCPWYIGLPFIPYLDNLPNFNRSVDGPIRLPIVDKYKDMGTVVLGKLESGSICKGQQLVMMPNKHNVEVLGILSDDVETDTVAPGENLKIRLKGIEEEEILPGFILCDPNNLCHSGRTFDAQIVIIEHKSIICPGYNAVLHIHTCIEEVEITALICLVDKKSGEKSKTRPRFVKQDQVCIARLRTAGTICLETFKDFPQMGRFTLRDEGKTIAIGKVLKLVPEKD
# Sequence of GSPT1 (Q96SW2 whole entry): as the sequence (Q96SW2 whole entry) above
# Sequence of GSPT1 (Q16531 whole entry partner): as the sequence (Q16531 whole entry partner) above
CK1α Ymin (CK1α),DC50 (CK1α),DC50 (GSPT1),GSPT1 Ymin (GSPT1),Structure (SMILES)
E (E = >25-75% remaining),< 25 nM,≥ 25 nM,F (F = >75-100% remaining),CC(C)n1ccc(-c2c(-c3ccc4c(c3)CN(C3CCC(=O)NC3=O)C4=O)ncn2C)n1 (centres unmarked) [Example 487]
C (C = 0-10% remaining),< 25 nM,< 25 nM,E (E = >25-75% remaining),Cn1cnc(-c2ccc3c(c2)CN(C2CCC(=O)NC2=O)C3=O)c1-c1ccc2occc2c1 (centres unmarked) [Example 489]
E (E = >25-75% remaining),≥ 25 nM,≥ 25 nM,F (F = >75-100% remaining),Cn1cnc(-c2ccc3c(c2)CN(C2CCC(=O)NC2=O)C3=O)c1-c1ccc2ncnn2c1 (centres unmarked) [Example 490]
D (D = >10- 25% remaining),< 25 nM,≥ 25 nM,E (E = >25-75% remaining),CC(C)Cn1cc(-c2c(-c3ccc4c(c3)CN(C3CCC(=O)NC3=O)C4=O)ncn2C)cn1 (centres unmarked) [Example 491]
F (F = >75-100% remaining),≥ 25 nM,≥ 25 nM,F (F = >75-100% remaining),Cn1cnc(-c2ccc3c(c2)CN(C2CCC(=O)NC2=O)C3=O)c1-c1cnn(C(C)(C)C)c1 (centres unmarked) [Example 492]
D (D = >10- 25% remaining),< 25 nM,≥ 25 nM,F (F = >75-100% remaining),Cn1cnc(-c2ccc3c(c2)CN(C2CCC(=O)NC2=O)C3=O)c1-c1ccc2cccnc2c1 (centres unmarked) [Example 493]
E (E = >25-75% remaining),≥ 25 nM,≥ 25 nM,F (F = >75-100% remaining),Cn1cnc(-c2ccc3c(c2)CN(C2CCC(=O)NC2=O)C3=O)c1-c1ccc2nccnc2c1 (centres unmarked) [Example 494]
C (C = 0-10% remaining),< 25 nM,< 25 nM,E (E = >25-75% remaining),Cn1cnc(-c2ccc3c(c2)CN(C2CCC(=O)NC2=O)C3=O)c1-c1ccc2c(ccn2C)c1 (centres unmarked) [Example 496]
D (D = >10- 25% remaining),≥ 25 nM,≥ 25 nM,F (F = >75-100% remaining),Cn1cnc(-c2ccc3c(c2)CN(C2CCC(=O)NC2=O)C3=O)c1-c1cnn(CC(F)F)c1 (centres unmarked) [Example 497]
D (D = >10- 25% remaining),< 25 nM,< 25 nM,F (F = >75-100% remaining),Cn1cnc(-c2ccc3c(c2)CN(C2CCC(=O)NC2=O)C3=O)c1-c1ccc2cnn(C)c2c1 (centres unmarked) [Example 498]
E (E = >25-75% remaining),< 25 nM,≥ 25 nM,F (F = >75-100% remaining),Cn1cnc(-c2ccc3c(c2)CN(C2CCC(=O)NC2=O)C3=O)c1-c1cnc2c(ccn2C)c1 (centres unmarked) [Example 499]
C (C = 0-10% remaining),< 25 nM,≥ 25 nM,F (F = >75-100% remaining),Cn1cnc(-c2ccc3c(c2)CN(C2CCC(=O)NC2=O)C3=O)c1-c1ccc2ncn(C)c2c1 (centres unmarked) [Example 500]
C (C = 0-10% remaining),< 25 nM,≥ 25 nM,F (F = >75-100% remaining),Cc1nc2ccc(-c3c(-c4ccc5c(c4)CN(C4CCC(=O)NC4=O)C5=O)ncn3C)cc2[nH]1 (centres unmarked) [Example 501]
C (C = 0-10% remaining),< 25 nM,< 25 nM,E (E = >25-75% remaining),Cn1cnc(-c2ccc3c(c2)CN(C2CCC(=O)NC2=O)C3=O)c1-c1ccc2ncsc2c1 (centres unmarked) [Example 502]
E (E = >25-75% remaining),≥ 25 nM,≥ 25 nM,F (F = >75-100% remaining),Cn1cnc(-c2ccc3c(c2)CN(C2CCC(=O)NC2=O)C3=O)c1-c1cnn(Cc2cccnc2)c1 (centres unmarked) [Example 503]
D (D = >10- 25% remaining),≥ 25 nM,≥ 25 nM,F (F = >75-100% remaining),Cn1cnc(-c2ccc3c(c2)CN(C2CCC(=O)NC2=O)C3=O)c1-c1cc[nH]n1 (centres unmarked) [Example 504]
D (D = >10- 25% remaining),< 25 nM,< 25 nM,F (F = >75-100% remaining),Cn1ccc(-c2c(-c3ccc4c(c3)CN(C3CCC(=O)NC3=O)C4=O)ncn2C)n1 (centres unmarked) [Example 505]
C (C = 0-10% remaining),< 25 nM,< 25 nM,E (E = >25-75% remaining),Cn1cnc(-c2ccc3c(c2)CN(C2CCC(=O)NC2=O)C3=O)c1-c1cccs1 (centres unmarked) [Example 506]
E (E = >25-75% remaining),< 25 nM,≥ 25 nM,F (F = >75-100% remaining),Cc1ncccc1-c1c(-c2ccc3c(c2)CN(C2CCC(=O)NC2=O)C3=O)ncn1C (centres unmarked) [Example 507]

CK1α Ymin (CK1α),DC50 (CK1α),DC50 (GSPT1),GSPT1 Ymin (GSPT1),Structure (SMILES)
D (D = >10- 25% remaining),< 25 nM,≥ 25 nM,F (F = >75-100% remaining),COc1ccsc1-c1c(-c2ccc3c(c2)CN(C2CCC(=O)NC2=O)C3=O)ncn1C (centres unmarked) [Example 508]
D (D = >10- 25% remaining),< 25 nM,< 25 nM,E (E = >25-75% remaining),Cn1cnc(-c2ccc3c(c2)CN(C2CCC(=O)NC2=O)C3=O)c1-c1c[nH]c2ccccc12 (centres unmarked) [Example 509]
C (C = 0-10% remaining),< 25 nM,≥ 25 nM,E (E = >25-75% remaining),Cn1cnc(-c2ccc3c(c2)CN(C2CCC(=O)NC2=O)C3=O)c1-c1ccc2[nH]ncc2c1 (centres unmarked) [Example 510]
D (D = >10- 25% remaining),< 25 nM,≥ 25 nM,F (F = >75-100% remaining),Cn1cnc(-c2ccc3c(c2)CN(C2CCC(=O)NC2=O)C3=O)c1-c1cnn(C2CCC2)c1 (centres unmarked) [Example 511]
C (C = 0-10% remaining),< 25 nM,< 25 nM,F (F = >75-100% remaining),Cc1c[nH]c2cc(-c3c(-c4ccc5c(c4)CN(C4CCC(=O)NC4=O)C5=O)ncn3C)ccc12 (centres unmarked) [Example 512]
C (C = 0-10% remaining),< 25 nM,≥ 25 nM,F (F = >75-100% remaining),Cn1cnc(-c2ccc3c(c2)CN(C2CCC(=O)NC2=O)C3=O)c1-c1ccc2c(cnn2C)c1 (centres unmarked) [Example 513]
C (C = 0-10% remaining),< 25 nM,≥ 25 nM,E (E = >25-75% remaining),Cn1cnc(-c2ccc3c(c2)CN(C2CCC(=O)NC2=O)C3=O)c1-c1ccc2c(c1)CCCO2 (centres unmarked) [Example 514]
C (C = 0-10% remaining),< 25 nM,< 25 nM,E (E = >25-75% remaining),Cn1cnc(-c2ccc3c(c2)CN(C2CCC(=O)NC2=O)C3=O)c1-c1ccc2sccc2c1 (centres unmarked) [Example 515]
D (D = >10- 25% remaining),< 25 nM,< 25 nM,F (F = >75-100% remaining),Cn1cnc(-c2ccc3c(c2)CN(C2CCC(=O)NC2=O)C3=O)c1-c1cccc(-n2cccn2)c1 (centres unmarked) [Example 516]
E (E = >25-75% remaining),≥ 25 nM,< 25 nM,F (F = >75-100% remaining),Cn1cnc(-c2ccc3c(c2)CN(C2CCC(=O)NC2=O)C3=O)c1-c1cnn(C2CCCCC2)c1 (centres unmarked) [Example 517]
E (E = >25-75% remaining),≥ 25 nM,≥ 25 nM,F (F = >75-100% remaining),Cn1cnc(-c2ccc3c(c2)CN(C2CCC(=O)NC2=O)C3=O)c1-c1cncnc1 (centres unmarked) [Example 520]
C (C = 0-10% remaining),< 25 nM,< 25 nM,E (E = >25-75% remaining),Cn1ccc(-c2c(-c3ccc4c(c3)CN(C3CCC(=O)NC3=O)C4=O)ncn2C)c1 (centres unmarked) [Example 521]
D (D = >10- 25% remaining),≥ 25 nM,≥ 25 nM,E (E = >25-75% remaining),Cn1cnc(-c2ccc3c(c2)CN(C2CCC(=O)NC2=O)C3=O)c1-c1ccc(N)nc1 (centres unmarked) [Example 522]
D (D = >10- 25% remaining),≥ 25 nM,≥ 25 nM,E (E = >25-75% remaining),Cn1cnc(-c2ccc3c(c2)CN(C2CCC(=O)NC2=O)C3=O)c1-c1cncc(N)c1 (centres unmarked) [Example 523]
E (E = >25-75% remaining),≥ 25 nM,≥ 25 nM,F (F = >75-100% remaining),COc1ccncc1-c1c(-c2ccc3c(c2)CN(C2CCC(=O)NC2=O)C3=O)ncn1C (centres unmarked) [Example 524]
C (C = 0-10% remaining),< 25 nM,< 25 nM,C (C = 0-10% remaining),Cn1cnc(-c2ccc3c(c2)CN(C2CCC(=O)NC2=O)C3=O)c1-c1ccc2cc[nH]c2c1 (centres unmarked) [Example 525]
E (E = >25-75% remaining),< 25 nM,< 25 nM,F (F = >75-100% remaining),Cn1cnc(-c2ccc3c(c2)CN(C2CCC(=O)NC2=O)C3=O)c1-c1cccc2cc[nH]c12 (centres unmarked) [Example 526]
D (D = >10- 25% remaining),< 25 nM,< 25 nM,E (E = >25-75% remaining),Cn1cnc(-c2ccc3c(c2)CN(C2CCC(=O)NC2=O)C3=O)c1-c1cc2ccccc2[nH]1 (centres unmarked) [Example 527]
D (D = >10- 25% remaining),≥ 25 nM,≥ 25 nM,E (E = >25-75% remaining),Cn1cnc(-c2ccc3c(c2)CN(C2CCC(=O)NC2=O)C3=O)c1-c1ccc2nccn2c1 (centres unmarked) [Example 528]
